Results reported in US5607926A, “Cephalosporin antibiotics” (Microcide Pharmaceuticals, Inc., priority 1995, dated 1997).
Values after ≈ are worked out from the molar mass of the structure shown. Where two headings read alike, the source gives them in different places.

Key:
Type in all cases: cell-based
[1] = system: S. aureus ATCC 25923; assay: In vitro antibacterial evaluation, MIC by agar dilution, S. aureus ATCC 25923; conditions: Staphylococcus aureus, ATCC25923
Description: The compounds of the invention were evaluated against several β-lactamresistant bacteria strains by determining the minimum inhibitory concentration (MIC, μg/ml) of each compound with respect to each strain. The MIC, the lowest concentration of antibiotic which inhibits growth of the test organism, was determined by the agar dilution method.
To determine the MIC for bacterial isolates, the test compound was incorporated in a series of two-fold dilutions into liquified Mueller-Hinton agar. Upon solidification, a number of different bacterial strains were spot inoculated with a replicating device onto the agar surface. […] The procedures used in these studies have been standardized by the National Committee for Clinical Laboratory Standards (NCCLS), as per the NCCLS publication entitled METHODS FOR DILUTION ANTIMICROBIAL SUSCEPTIBILITY TESTS (1991), which is incorporated herein by reference.
Aliquots of antimicrobial agents were prepared in phosphate buffered saline (PBS) at pH 7.2. Tween 20 or DMSO was used as a solubilizing vehicle as needed. Standard methods of vortexing, sonicating and gentle heat were used to facilitate solubilizing the test agent. Typically, the concentration of the stock solution was 10× that of the highest drug concentration tested. A 1.28 mg/mL stock solution was used with a subsequent highest working concentration of 128 μg/mL. Serial two-fold dilutions were done through ≤0.25 μg/mL. Each drug level was tested in duplicate. Two-fold drug dilutions were done in sterile 50 mL tubes with a final drug volume of 5 mL. Upon the addition of 45 mL of molten agar, a 10-fold dilution resulted. Two, 25 mL. plates were then poured into 15×150 mm square Petri plates with grids and allowed to harden.
A control plate with a reference drug, either cefotaxime, vancomycin or imipenem, was used as the positive growth control. Stock concentrations of reference antibiotics were prepared and frozen at -80° C. Upon preparation, the control plates were sealed and stored in the refrigerator for up to 1 week prior to use; however, imipenem control plates had to be prepared just prior to use. All test plates were used within 24 hours of preparation.
Satisfactory results were obtained where the inoculum contained about 10^4 colony forming units (cfu) ±0.5 logs. Starting with pure cultures of the test isolates on agar plates, a few isolated colonies were transferred to a tube of nutrient broth and allowed to grow 4-6 hours at 35°-36° C. to reach log-phase growth. Dropwise addition of the broth culture to PBS was done to match a 0.5 McFarland turbidity standard equal to 10^8 cfu/mL. This was further diluted ten-fold in PBS to reach a working inoculum concentration of 10^7 cfu/mL. When 1 μL of the working inoculum was applied to the agar surface a concentration of about 10^4 cfu per spot was obtained.
Disposable sterile 1 μL loops were used to inoculate test plates, with each isolate in a designated grid on the agar plate. An alternate method of inoculation involved the use of a replica plater, a device with 48 steel pins allowing the simultaneous inoculation of multiple isolates. After the spots had dried, the plates were incubated at 35°-36° C. for 16-20 hours. Endpoints were assessed as the minimum inhibitory concentration (MIC) of antimicrobial agent.

[2] = system: S. epidermidis ATCC 31432; assay: In vitro antibacterial evaluation, MIC by agar dilution, S. epidermidis ATCC 31432; conditions: Staphylococcus epidermidis, ATCC31432
Outline: (§1)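 Log-phase isolates were spot-inoculated at about 10^4 cfu per spot onto Mueller-Hinton agar plates containing twofold compound dilutions (highest working concentration 128 μg/mL, lowest ≤0.25 μg/mL, duplicates). After 16-20 h at 35-36 °C, the lowest growth-inhibiting level was taken as MIC, per NCCLS agar dilution.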

[3] = system: S. aureus 76 (Meth^R)(lac^+); assay: In vitro antibacterial evaluation, MIC by agar dilution, S. aureus 76; conditions: Staphylococcus aureus, read-out: MIC
Outline: as §1

[4] = system: S. aureus Col8A (Meth^S)(lac^-); assay: In vitro antibacterial evaluation, MIC by agar dilution, S. aureus Col8A; conditions: Staphylococcus aureus
Outline: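 Log-phase isolates were spot-inoculated at about 10^4 cfu onto Mueller-Hinton agar carrying duplicate two-fold compound levels, 128 μg/mL to ≤0.25 μg/mL, following NCCLS (1991). Plates were read after 16-20 h at 35°-36° C. The lowest growth-inhibiting concentration gave the MIC (μg/ml).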

[5] = system: S. haemolyticus (Meth^R); assay: In vitro antibacterial evaluation, MIC by agar dilution, S. haemolyticus; conditions: Staphylococcus haemolyticus, read-out: MIC
Outline: as §1

[6] = system: E. faecium ATCC 35667; assay: In vitro antibacterial evaluation, MIC by agar dilution, E. faecium ATCC 35667; conditions: Enterococcus faecium, ATCC35667, read-out: MIC
Outline: as §1

[7] = system: E. faecalis ATCC 29212; assay: In vitro antibacterial evaluation, MIC by agar dilution, E. faecalis ATCC 29212; conditions: Enterococcus faecalis, ATCC29212; E. faecalis ATCC 29212; read-out: MIC
Outline: as §1

[8] = system: E. coli ATCC 25922; assay: In vitro antibacterial evaluation, MIC by agar dilution, E. coli ATCC 25922; conditions: Escherichia coli, ATCC25922, read-out: MIC
Outline: as §1

[9] = system: P. aeruginosa ATCC 27853; assay: In vitro antibacterial evaluation, MIC by agar dilution, P. aeruginosa ATCC 27853; conditions: Pseudomonas aeruginosa, ATCC27853, read-out: MIC
Outline: as §1

[10] = S. aureus ATCC 25923, read-out: MIC
[11] = S. epidermidis ATCC 31432, read-out: MIC

Compound | MIC [1] [µg/mL] | MIC [2] [µg/mL] | MIC [3] [µg/mL] | MIC [4] [µg/mL] | MIC [5] [µg/mL] | MIC [6] [µg/mL] | MIC [7] [µg/mL] | MIC [8] [µg/mL] | MIC [9] [µg/mL] | MIC [1, 10] [µg/mL] | MIC [2, 11] [µg/mL]
O=C(Cc1ccccc1)N[C@@H]1C(=O)N2C(C(=O)O)=C(Sc3ccc(Br)cc3Br)CS[C@H]12 [Cmpd 39, (7R)-7-[(Phenylacetyl)amino]-3-(2,4-dibromophenylthio)-3-cephem-4-carboxylic acid] | < 0.25 | < 0.25 | 4 (≈ 6.85 µM) | < 0.25 | 8 (≈ 13.7 µM) | 2 (≈ 3.42 µM) | 2 (≈ 3.42 µM) | > 32 | > 32 | – | –
O=C(Cc1ccccc1)N[C@@H]1C(=O)N2C(C(=O)O)=C(Sc3ccc(C(F)(F)F)cc3)CS[C@H]12 [Cmpd 40, (7R)-7-[(Phenylacetyl)amino]-3-(4-trifluoromethylphenylthio)-3-cephem-4-carboxylic acid] | < 0.25 | < 0.25 | 16 (≈ 32.4 µM) | < 0.25 | 32 (≈ 64.7 µM) | 4 (≈ 8.09 µM) | 4 (≈ 8.09 µM) | > 32 | > 32 | – | –
Nc1nc(/C(=N/O)C(=O)N[C@@H]2C(=O)N3C(C(=O)O)=C(Sc4ccccc4-c4ccccc4)CS[C@H]23)cs1 [Cmpd 42, (7R)-7-[(Z)-2-(aminothiazol-4-yl)-2-(hydroxyimino)acetamido]-3-(2-biphenylthio)-3-cephem-4-carboxylic acid] | – | – | 8 (≈ 14.4 µM) | 0.5 (≈ 0.903 µM) | 16 (≈ 28.9 µM) | 2 (≈ 3.61 µM) | 2 (≈ 3.61 µM) | 32 (≈ 57.8 µM) | > 32 | < 0.25 | < 0.25
COc1ccc(Cc2ccc(-c3ccccc3SC3=C(C(=O)O)N4C(=O)[C@@H](NC(=O)Cc5ccccc5)[C@H]4SC3)s2)cc1 [Cmpd 43, (7R)-7-[(Phenylacetyl)amino]-3-(2-(2-(4-methoxy-phenylmethyl)thien-5-yl)phenylthio)-3-cephem-4-carboxylic acid] | < 0.25 | < 0.25 | 8 (≈ 12.7 µM) | < 0.25 | 16 (≈ 25.4 µM) | 4 (≈ 6.36 µM) | 4 (≈ 6.36 µM) | > 32 | > 32 | – | –
CSc1ccccc1SC1=C(C(=O)O)N2C(=O)[C@@H](NC(=O)Cc3ccccc3)[C@H]2SC1 [Cmpd 44, (7R)-7-[(Phenylacetyl)amino]-3-(2-methylthiophenylthio)-3-cephem-4-carboxylic acid] | < 0.25 | < 0.25 | 4 to 8 (≈ 8.46 to 16.9 µM) | < 0.25 | 8 (≈ 16.9 µM) | 4 (≈ 8.46 µM) | 4 (≈ 8.46 µM) | > 32 | > 32 | – | –
Cn1cc[n+](Cc2ccc(-c3ccccc3SC3=C(C(=O)[O-])N4C(=O)[C@@H](NC(=O)Cc5ccccc5)[C@H]4SC3)s2)c1 [Cmpd 45, (7R)-7-[(Phenylacetyl)amino]-3-(2-(2-(N-methylimidazoliummethyl)thien-5-yl)phenylthio)-3-cephem-4-carboxylic acid] | – | – | 16 (≈ 26.5 µM) | 0.5 (≈ 0.83 µM) | 32 (≈ 53.1 µM) | 4 (≈ 6.64 µM) | 4 (≈ 6.64 µM) | > 32 | > 32 | < 0.25 | < 0.25
CC(C)(C)c1ccccc1SC1=C(C(=O)O)N2C(=O)[C@@H](NC(=O)Cc3ccccc3)[C@H]2SC1 [Cmpd 46, (7R)-7-[(Phenylacetyl)amino]-3-(2-tert-butylphenylthio)-3-cephem-4-carboxylic acid] | < 0.25 | < 0.25 | 8 (≈ 16.6 µM) | < 0.25 | 16 (≈ 33.2 µM) | 2 (≈ 4.14 µM) | 2 (≈ 4.14 µM) | > 32 | > 32 | – | –
CC(C)Oc1ccccc1SC1=C(C(=O)O)N2C(=O)[C@@H](NC(=O)Cc3ccccc3)[C@H]2SC1 [Cmpd 47, (7R)-7-[(Phenylacetyl)amino]-3-(2-iso-propyloxyphenylthio)-3-cephem-4-carboxylic acid] | < 0.25 | < 0.25 | 8 (≈ 16.5 µM) | < 0.25 | 16 (≈ 33 µM) | 2 (≈ 4.13 µM) | 4 (≈ 8.25 µM) | > 32 | > 32 | – | –
Cn1cc[n+](Cc2ccoc2-c2ccccc2SC2=C(C(=O)[O-])N3C(=O)[C@@H](NC(=O)Cc4ccccc4)[C@H]3SC2)c1 [Cmpd 48, (7R)-7-[(Phenylacetyl)amino]-3-(2-(3-(N-methylimidazoliummethyl)furan-2-yl)phenylthio)-3-cephem-4-carboxylic acid] | – | – | 16 (≈ 27.3 µM) | 0.5 (≈ 0.852 µM) | 16 (≈ 27.3 µM) | 4 (≈ 6.82 µM) | 4 (≈ 6.82 µM) | > 32 | > 32 | < 0.25 | < 0.25
N#Cc1ccc(SC2=C(C(=O)O)N3C(=O)[C@@H](NC(=O)Cc4ccccc4)[C@H]3SC2)c([N+](=O)[O-])c1 [Cmpd 49, (7R)-7-[(Phenylacetyl)amino]-3-(4-cyano-2-nitrophenylthio)-3-cephem-4-carboxylic acid] | – | – | 16 (≈ 32.2 µM) | 0.5 (≈ 1.01 µM) | 32 (≈ 64.4 µM) | 4 (≈ 8.06 µM) | 4 (≈ 8.06 µM) | > 32 | > 32 | < 0.25 | < 0.25
O=Cc1ccccc1SC1=C(C(=O)O)N2C(=O)[C@@H](NC(=O)Cc3ccccc3)[C@H]2SC1 [Cmpd 50, (7R)-7-[(Phenylacetyl)amino]-3-(2-formylphenylthio)-3-cephem-4-carboxylic acid] | < 0.25 | < 0.25 | 8 (≈ 17.6 µM) | < 0.25 | 8 (≈ 17.6 µM) | 4 (≈ 8.8 µM) | 4 (≈ 8.8 µM) | 8 (≈ 17.6 µM) | > 32 | – | –
